How the values were obtained:
[1] = tested on: hippocampal neurons; assay: Synaptic density (vGLUT1/PSD95) in cultured hippocampal neurons; type: cell-based, mouse
Procedure: (§1) Immunocytochemistry. […] NIS element software was used for image analysis. “Objective Count” dialog was used for intensity measurement. […] The overlapped dots represent synapses.
Primary hippocampal neuron culture. Hippocampal neuron cultures were prepared as previously described (15). In brief, mouse hippocampi were dissected from postnatal day 0-1 pups in cold HBSS. Cells were dissociated by using 0.025% trypsin at 37° C. for 15 minutes, followed by 10 times homogenization in ice cold DMEM. Dissociated cells were then passed through a 100 μm cell strainer (Corning) and centrifuged for 5 minutes at 210×g. The pellet was gently resuspended in neuron culture medium (Neurobasal A with 2% B27 supplement, 0.5 mM L-glutamine, Invitrogen) and plated on poly-D-lysine (Sigma-Aldrich) coated Lab-Tek chamber slides (Nunc, 177445) with appropriate densities.
Agonist treatment on primary cultured neurons. At 14 days in vitro (DIV14) hippocampal neurons were exposed to the synthetic growth hormone secretagogue receptor agonist MK0677 (Tocris, #5272, 1.5 μM) the dopamine D1-like receptor agonist SKF81297 (Sigma-Aldrich, #S143, 2 μM) or a mixture of MK0677 and SKF81297 for 5 minutes. The exposure was followed by immunostaining to examine the effects of Ghsr1α/Drd1 co-activation on Aβ induced synaptic loss or Ghsr1α/Drd1, Aβ/Ghsr1α interaction as described in previous sections.

[2] = tested on: 5×FAD mice; assay: Synaptic density in hippocampal CA1 region of treated mice; type: in vivo, mouse; settings: MK0677 1.5 mg/kg, daily i.p., one month
Procedure: as §1
Synaptic density analysis. For synaptic density analysis, vesicular glutamate transporter 1(vGlutl)- and postsynaptic density 95 (PSD95)-stained channels were saved as two binary layers, the threshold for each channel defined separately and then applied to all the images. The overlapping areas were analyzed by using the “AND” operation in the “Binary Operation” dialogs of NIS element software. Hippocampal volume was measured as described in the previous section (amyloid plaque deposition analysis). The overlapping dots represent synapses and average synapse number per selected area volume was calculated to represent synaptic density.

[3] = tested on: 5×FAD mice; assay: Neurogenesis (DCX staining) in the dentate gyrus; type: in vivo, mouse; settings: MK0677 1.5 mg/kg, daily i.p., one month
Procedure: as §1
Neurogenesis analysis. Neurogenesis in the hippocampal dentate gyms (DG) area was presented by performing doublecortin (DCX) staining in fixed brain slices as previously described. DCX-positive (DCX^+) cell number was counted manually. The DG area was measured using NIS element software. DCX cell density was calculated by dividing the DCX cell number by the DG area to evaluate neurogenesis.

[4] = tested on: 5×FAD mice; assay: Survival of mice under daily MK0677 i.p. injection; type: in vivo, mouse; settings: 30 days
Procedure: To determine whether MK0677 mitigates hippocampal lesions in 5×FAD mice, the inventor first sought to determine the optimal dose of MK0677. 5×FAD mice at 3 months old received either saline or MK0677 at 1.5 or 3 mg/kg via daily i.p. injection for 30 days (FIGS. 12a). 5×FAD mice at 3 months old have little to no hippocampal lesions and indiscernible behavioral change, both of which become prominent at 4 months of age (the endpoint of treatment). The doses of MK0677 were chosen based on previous studies. […] The inventor therefore selected 5×FAD mice that received the 1.5 mg/kg dose of MK0677 for biological response assays. Next, he examined the impact of MK0677 treatment on hippocampal Aβ deposition in 5×FAD mice. To this end, immunofluorescent staining using the specific antibody against Aβ was performed to visualize Aβ plaques.
Mice and agonist treatment.

[5] = tested on: 5×FAD mice; assay: Amyloid plaque deposition analysis (hippocampus and cortex); type: in vivo, mouse
Procedure: Immunocytochemistry. Frozen sections were prepared as previously described. […] Nuclei were labeled with 4′,6-diamidino-2-phenylindole (DAPI, Thermo Fisher Scientific, #R37606, 1 drop/500 ul) as needed. Images were collected on a Nikon confocal microscope. Amyloid plaque deposition analysis. For amyloid plaque deposition analysis, amyloid plaque channel was subjected to “Binary” then “Define Threshold” in NIS element software. The threshold was set to include all the positive staining and the same setting was applied to all images. Volume measurement was then performed for all the plaques as well as each single plaque in both the hippocampal and cortical areas using the ROI selection option. Amyloid plaque-occupied percentage in the hippocampus or cortex and the average individual plaque volume was used to compare amyloid plaque deposition between 5×FAD saline and MK0677 treatment groups.

[6] = tested on: 5×FAD mice; assay: Microglia density, morphology and plaque-associated microglia analysis; type: in vivo, mouse
Procedure: Immunocytochemistry. Frozen sections were prepared as previously described. […] Nuclei were labeled with 4′,6-diamidino-2-phenylindole (DAPI, Thermo Fisher Scientific, #R37606, 1 drop/500 ul) as needed. Images were collected on a Nikon confocal microscope. Microglia morphology and plaque-associated microglia density analysis. Analysis of microglia morphology was done by producing three-dimensional (3D) reconstructions of cells using Imaris software (Bitplane, Imaris×64 9.0.2)[49]. Using the Filament algorithm, the software was able to calculate the length of each cell dendrite and number of branch points. This was done by first selecting the appropriate region of interest for the desired cell. If there were nearby cells, the somas of those cells were included in the region of interest. Since the software builds the dendrites based on extension from the largest set diameter, doing this can prevent unwanted filaments bridging the dendrites of two or more cells. The dendrite diameter parameters were set with the largest diameter being the soma size and the smallest diameter at 0.5 μm. To further prevent unwanted connections, the option to ‘Remove disconnected segments’ was used in the dendrite building menu with the distance threshold set at 5 μm. After the algorithm finished detecting the dendrites, non-specifically detected filaments were manually trimmed. Dendrite length and branch points were then calculated by the software. Plaque-associated microglia density was analyzed by using NIS element software. Microglia were counted under the following rule: if more than 50% of the microglia soma was within a plaque, it was counted as one plaque-associated microglia. Plaque volume was analyzed as described in the previous section (amyloid plaque deposition analysis).

[7] = molecular target: Ghsr1α (Homo sapiens, UniProt Q92847); settings: cited from earlier work
Chain of Ghsr1α (Q92847 whole entry): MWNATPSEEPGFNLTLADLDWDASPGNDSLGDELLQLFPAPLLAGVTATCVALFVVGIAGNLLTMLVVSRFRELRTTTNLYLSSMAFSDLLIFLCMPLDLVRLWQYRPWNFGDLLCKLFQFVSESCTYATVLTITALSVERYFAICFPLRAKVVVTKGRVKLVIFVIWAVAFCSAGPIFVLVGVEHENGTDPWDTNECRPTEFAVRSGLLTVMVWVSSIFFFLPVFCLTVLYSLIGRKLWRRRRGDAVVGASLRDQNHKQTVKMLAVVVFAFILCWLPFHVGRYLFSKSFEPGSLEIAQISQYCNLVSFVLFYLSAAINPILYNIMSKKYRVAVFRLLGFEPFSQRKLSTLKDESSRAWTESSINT

[8] = tested on: hippocampal CA3-CA1 pathway; assay: Long-term potentiation (fEPSP) in hippocampal slices; settings: MK0677 1.5 μM, SKF81297 2 μM, alone or in combination
Procedure: For electrophysiological experiments, mice were anesthetized with isoflurane and decapitated. […] Slices were allowed to rest for 30 minutes after being transferred to the recording chamber before recordings began. Recordings of local field potentials (LFPs) were performed on an Axon Multiclamp 700B amplifier (Molecular Devices), and data were acquired and analyzed using AxoGraph X (AxoGraph Scientific). A tungsten concentric bipolar microelectrode (World Precision Instruments), and a recording glass electrode (1.5 MS2) filled with recording ACSF, were placed approximately 200 μm apart in the Schaffer collateral-commissural pathway in the CA1 region of the hippocampus. Pulses were delivered in 30 seconds intervals. Before baseline recordings commenced, input-output curves were taken, using 25-150 μA stimulation currents in 25 μA steps. Three sweeps were sampled at each stimulation intensity and averaged to represent the voltage response at each step. Recordings of baseline responses lasted for at least 40 minutes. Stimulation intensity was set to approximately 40% of the minimum intensity required to evoke the maximum response (based on the input-output curve). The stimulation intensity was kept consistent throughout the duration of the experiment. […] LTP was induced using a theta burst stimulation (TBS) protocol consisting of 10 bursts (5 pulses at 100 Hz) repeated at 5 Hz delivered two times 30 seconds apart. After LTP induction, LFPs were recorded for an additional 60 minutes. The slope of the field excitatory postsynaptic potential (fEPSP) was measured in Axograph scientific software and sweeps were averaged in bins of 5 for both the baseline and post LTP induction periods. Changes in LFPs are expressed as percentage change from the averaged baseline values.

[9] = MK0677 1.5 mg/kg, daily i.p., one month
[10] = saline- vs MK0677-treated 5×FAD mice

With `CC(C)(N)C(=O)N[C@H](COCc1ccccc1)C(=O)N1CCC2(CC1)CN(S(C)(=O)=O)c1ccccc12` [MK0677] the “synaptic density / oligomeric Aβ42-induced synapse loss” value ([1]; oligomeric Aβ42 1 μM, 24 hours, 1.5 μM MK0677, 2 μM SKF81297, or in combination) was “did not mitigate”, the “synaptic density, agonist alone” value ([1]; without oligomeric Aβ42, MK0677 at doses greater than 1.5 μM, SKF81297 2 μM) was “substantially promoted synaptic formation” and the “synaptic density, non-TG saline vs MK0677” value [2] was “no significant difference”. The “synaptic loss in CA1 region, 5×FAD mice” value [2] was “not significantly attenuated”, the “DCX+ cells, non-TG saline vs non-TG MK0677” value [3] was “no significant difference” and the “DCX-positive cells in dentate gyri, 5×FAD mice” value [3] was “remarkably augmented number of DCX-positive cells”. For the same molecule, the “DCX-positive cells, Ghsr null mice” value [3] was “no response”, the “5×FAD mouse survival vs saline” value ([4]; MK0677 1.5 mg/kg) was “little effect” and the “mortality of 5×FAD mice” value ([4]; MK0677 3 mg/kg) was “significantly increased the mortality”. For the same molecule, the “size of each single Aβ plaque, hippocampus” value ([5]; 5×FAD mice, MK0677 1.5 mg/kg, daily i.p., 30 days) was “did not significantly alter”, the “single plaque size, neocortex” value ([5]; MK0677-treated 5×FAD mice) was “failed to show any influence” and the “total plaque-occupied volume, neocortex” value ([5]; MK0677-treated 5×FAD mice) was “failed to show any influence”. For the same molecule, the “increased microglial density in the hippocampus, 5×FAD mice” value [6, 9] was “not prevented”, the “microglia density, non-TG saline vs MK0677” value [6, 9] was “no significant difference” and the “density of plaque-associated microglia, neocortex” value ([6]; MK0677-treated 5×FAD mice) was “failed to show any influence”. The “density of total microglia, neocortex” value ([6]; MK0677-treated 5×FAD mice) was “failed to show any influence”, the “density of plaque-associated microglia, hippocampus” value [6, 10] was “no significant difference” and the “microglia length of total process” value [6, 10] was “no significant difference”. For the same molecule, the “microglia number of branch points” value [6, 10] was “no significant difference”, the “potency relative to ghrelin” value [7] was “higher potency than ghrelin” and the “stimulus-evoked hippocampal LTP in 5×FAD slices” value ([8]; slices from 4 month-old 5×FAD mice) was “no effect”. For the same molecule, the “hippocampal LTP in non-Tg slices” value ([8]; slices from 4 month-old non-Tg mice) was “no effect”.

— patent publication US20220370471A1, “COMPOSITION AND METHOD FOR TREATMENT OF HIPPOCAMPAL SYNAPSE DYSFUNCTION AND COGNITIVE DEFICITS IN ALZHEIMER'S DISEASE” (BOARD OF REGENTS, THE UNIVERSITY OF TEXAS SYSTEM, priority 2019, published 2022)
